# Reference: PubChem BioAssay AID1259407 (Chemical Carcinogenesis Research Information System (CCRIS), 2018)
# The source made the active and inactive calls. No rule for the calls is given here.
# System: CCRIS mutagenicity, Ames/micronucleus/aberration tests
# Assay: CCRIS mutagenicity studies
# [1] = Test System: AMES SALMONELLA TYPHIMURIUM, Strain/Indicator: TA100, Metabolic Activation: NONE, Method: STANDARD PLATE
compound,measurement,setting,value
C[n+]1ccc(-c2ccccn2)cc1,mutagenic call,"Test System: AMES SALMONELLA TYPHIMURIUM, Strain/Indicator: TA97, Metabolic Activation: RAT, LIVER, S-9, PHENOBARBITAL, Method: STANDARD PLATE",inactive; negative
same,mutagenic call,"Test System: AMES SALMONELLA TYPHIMURIUM, Strain/Indicator: TA98, Metabolic Activation: RAT, LIVER, S-9, PHENOBARBITAL, Method: STANDARD PLATE",active; positive
same,mutagenic call,"Test System: AMES SALMONELLA TYPHIMURIUM, Strain/Indicator: TA100, Metabolic Activation: RAT, LIVER, S-9, PHENOBARBITAL, Method: STANDARD PLATE",inactive; negative
same,mutagenic call,"Test System: AMES SALMONELLA TYPHIMURIUM, Strain/Indicator: TA1535, Metabolic Activation: RAT, LIVER, S-9, PHENOBARBITAL, Method: STANDARD PLATE",inactive; negative
same,mutagenic call,"Test System: AMES SALMONELLA TYPHIMURIUM, Strain/Indicator: TA1537, Metabolic Activation: RAT, LIVER, S-9, PHENOBARBITAL, Method: STANDARD PLATE",inactive; negative
same,mutagenic call,"Test System: AMES SALMONELLA TYPHIMURIUM, Strain/Indicator: TA1538, Metabolic Activation: RAT, LIVER, S-9, PHENOBARBITAL, Method: STANDARD PLATE",inactive; negative
Cc1ccc(S(=O)(=O)N2C3c4ccccc4-c4ccccc4C32)cc1 (stereo unspecified),mutagenic call,[1],active; positive
COc1cc(O)c2c(=O)c3c(O)ccc(O)c3oc2c1,mutagenic call,"Test System: AMES SALMONELLA TYPHIMURIUM, Strain/Indicator: TA97, Metabolic Activation: NONE, Method: PREINCUBATION",active; positive
same,mutagenic call,"Test System: AMES SALMONELLA TYPHIMURIUM, Strain/Indicator: TA97, Metabolic Activation: RAT, LIVER, S-9, PHENOBARBITAL AND 5,6-BENZOFLAVONE, Method: PREINCUBATION",active; positive
same,mutagenic call,"Test System: AMES SALMONELLA TYPHIMURIUM, Strain/Indicator: TA98, Metabolic Activation: RAT, LIVER, S-9, PHENOBARBITAL AND 5,6-BENZOFLAVONE, Method: PREINCUBATION",inactive; negative
same,mutagenic call,"Test System: AMES SALMONELLA TYPHIMURIUM, Strain/Indicator: TA100, Metabolic Activation: RAT, LIVER, S-9, PHENOBARBITAL AND 5,6-BENZOFLAVONE, Method: PREINCUBATION",inactive; negative
same,mutagenic call,"Test System: AMES SALMONELLA TYPHIMURIUM, Strain/Indicator: TA2637, Metabolic Activation: RAT, LIVER, S-9, PHENOBARBITAL AND 5,6-BENZOFLAVONE, Method: PREINCUBATION",active; positive
Clc1ccccc1-c1ccccc1,mutagenic call,"End Point: In vivo mutagenicity, Test System: Liver, Species: Rat, Strain/Sex: Big Blue/Male, Route: Intraperitoneal",active; positive; statistically significant increase of mutant frequency of liver laci g
Cc1ccc(N)cc1[N+](=O)[O-],mutagenic call,"Test System: AMES SALMONELLA TYPHIMURIUM, Strain/Indicator: TA98, Metabolic Activation: NONE, Method: SUSPENSION/PLATE",inactive; negative
same,mutagenic call,"Test System: AMES SALMONELLA TYPHIMURIUM, Strain/Indicator: TA98, Metabolic Activation: RAT, LIVER, S-9, KANECHLOR 500, Method: PREINCUBATION",active; positive
same,mutagenic call,"Test System: AMES SALMONELLA TYPHIMURIUM, Strain/Indicator: TA98, Metabolic Activation: RAT, LIVER, S-9, PCB, Method: PREINCUBATION",inactive; negative
same,mutagenic call,"Test System: AMES SALMONELLA TYPHIMURIUM, Strain/Indicator: TA98, Metabolic Activation: RAT, LIVER, S-9, PHENOBARBITAL AND 5,6-BENZOFLAVONE, Method: SUSPENSION/PLATE",inactive; negative
same,mutagenic call,"Test System: AMES SALMONELLA TYPHIMURIUM, Strain/Indicator: TA100, Metabolic Activation: NONE, Method: PREINCUBATION",active; positive
same,mutagenic call,"Test System: AMES SALMONELLA TYPHIMURIUM, Strain/Indicator: TA100, Metabolic Activation: NONE, Method: SUSPENSION/PLATE",inactive; negative
same,mutagenic call,"Test System: AMES SALMONELLA TYPHIMURIUM, Strain/Indicator: TA100, Metabolic Activation: RAT, LIVER, S-9, KANECHLOR 500, Method: PREINCUBATION",active; positive
same,mutagenic call,"Test System: AMES SALMONELLA TYPHIMURIUM, Strain/Indicator: TA100, Metabolic Activation: RAT, LIVER, S-9, PHENOBARBITAL AND 5,6-BENZOFLAVONE, Method: SUSPENSION/PLATE",inactive; negative
Cc1cc2c(nc1N)[nH]c1ccccc12,mutagenic call,"Test System: AMES SALMONELLA TYPHIMURIUM, Strain/Indicator: TA98, Metabolic Activation: RAT, LIVER, S-9, AROCLOR 1254, Method: PREINCUBATION",active; positive
same,mutagenic call,"Test System: AMES SALMONELLA TYPHIMURIUM, Strain/Indicator: TA100, Metabolic Activation: RAT, LIVER, S-9, AROCLOR 1254, Method: PREINCUBATION",active; positive
same,mutagenic call,"Test System: AMES SALMONELLA TYPHIMURIUM, Strain/Indicator: YG1019, Metabolic Activation: RAT LIVER S-9, AROCLOR, Method: PREINCUBATION",active; positive
c1ccc([C@H]2O[C@@H]2c2ccccc2)cc1,mutagenic call,[1],inactive; negative
same,mutagenic call,"Test System: AMES SALMONELLA TYPHIMURIUM, Strain/Indicator: TA1535, Metabolic Activation: NONE, Method: STANDARD PLATE",inactive; negative
